Experimental data reported in ChEMBL document CHEMBL1159188, “Identification of novel (isoxazole)methylene-1-azabicyclic compounds with high affinity for the central nicotinic cholinergic receptor” (Bioorg Med Chem Lett, 1997).

System: Mus musculus
Assay: Compound was tested in vivo for exploratory locomotor activity in mice after subcutaneous administration
Assay type: functional
Conditions: sc

SMILES | ED50
Cc1cc(/C=C2\CN3CCC2C3)on1 (stereo not drawn) | 4.1 mg/kg
Cc1cc(/C=C2\CN3CCC2CC3)on1 | 0.4 mg/kg
Cc1cc([C@@H]2CCCN2C)on1 [ABT-418] | 10 mg/kg
CN1CCC[C@H]1c1cccnc1 [NICOTINE] | 0.3 mg/kg

Organism: Xenopus sp.
Assay: Compound was tested for inducing stimulation of current response in Xenopus oocytes (alpha4-beta2) at 1 uM
Assay type: functional, frog
Conditions: not given

SMILES | Response
Cc1cc(/C=C2\CN3CCC2C3)on1 (stereo not drawn) | 171%
Cc1cc(/C=C2\CN3CCC2CC3)on1 | 300%
Cc1cc([C@@H]2CCCN2C)on1 [ABT-418] | 24%
CN1CCC[C@H]1c1cccnc1 [NICOTINE] | 100%

System: Rattus norvegicus
Assay: Compound was tested in vivo against effective nicotinic agonistic activity in rat when administered s.c.
Assay type: functional
Conditions: sc

SMILES | ED50
Cc1cc(/C=C2/CN3CCC2C3)on1 (stereo not drawn) | 0.2 mg/kg
Cc1cc(/C=C2\CN3CCC2C3)on1 (stereo not drawn) | 0.5 mg/kg
Cc1cc([C@@H]2CCCN2C)on1 [ABT-418] | 0.2 mg/kg

Organism: Rattus norvegicus
Assay: Compound was tested for inducing [3H]dopamine release from striatal slices at 1 uM nicotine
Assay type: functional
Conditions: not given

SMILES | Activity
Cc1cc(/C=C2\CN3CCC2C3)on1 (stereo not drawn) | 38%

System: not listed separately
Assay: Inhibitory concentration required for in vitro binding affinity to Nicotinic acetylcholine receptor alpha4-beta2 expressed on cell line sf 21 by using [3H]-MCC
Conditions: not given

SMILES | IC50
Cc1cc(C=C2CN3CCCC2C3)on1 (stereo not drawn) | 41 nM
Cc1cc(/C=C2/CN3CCC2C3)on1 (stereo not drawn) | 6.5 nM
Cc1cc(/C=C2\CN3CCC2CC3)on1 | 1.4 nM
Cc1cc(/C=C2\CN3CCCC2C3)on1 (stereo not drawn) | 26 nM
Cc1cc([C@@H]2CCCN2C)on1 [ABT-418] | 37 nM
CN1CCC[C@H]1c1cccnc1 [NICOTINE] | 4.2 nM

Target: T1, Neuronal acetylcholine receptor; alpha3/beta2 (Homo sapiens, UniProt P17787+P32297)
T1 sequence (P17787 whole entry): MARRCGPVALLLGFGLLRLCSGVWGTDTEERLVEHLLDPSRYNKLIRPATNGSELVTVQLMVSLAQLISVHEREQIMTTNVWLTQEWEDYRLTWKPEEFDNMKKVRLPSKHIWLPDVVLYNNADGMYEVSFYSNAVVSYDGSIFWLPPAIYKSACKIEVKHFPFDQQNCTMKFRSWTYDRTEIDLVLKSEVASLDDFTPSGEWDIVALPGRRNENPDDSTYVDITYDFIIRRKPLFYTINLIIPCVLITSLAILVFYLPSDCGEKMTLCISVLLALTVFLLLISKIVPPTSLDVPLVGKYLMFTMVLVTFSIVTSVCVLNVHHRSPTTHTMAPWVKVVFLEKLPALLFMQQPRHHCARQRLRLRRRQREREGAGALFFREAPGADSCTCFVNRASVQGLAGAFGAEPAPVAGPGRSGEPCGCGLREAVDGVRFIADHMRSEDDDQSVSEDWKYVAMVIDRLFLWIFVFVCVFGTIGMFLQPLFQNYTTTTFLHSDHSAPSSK
T1 sequence (P32297 whole entry): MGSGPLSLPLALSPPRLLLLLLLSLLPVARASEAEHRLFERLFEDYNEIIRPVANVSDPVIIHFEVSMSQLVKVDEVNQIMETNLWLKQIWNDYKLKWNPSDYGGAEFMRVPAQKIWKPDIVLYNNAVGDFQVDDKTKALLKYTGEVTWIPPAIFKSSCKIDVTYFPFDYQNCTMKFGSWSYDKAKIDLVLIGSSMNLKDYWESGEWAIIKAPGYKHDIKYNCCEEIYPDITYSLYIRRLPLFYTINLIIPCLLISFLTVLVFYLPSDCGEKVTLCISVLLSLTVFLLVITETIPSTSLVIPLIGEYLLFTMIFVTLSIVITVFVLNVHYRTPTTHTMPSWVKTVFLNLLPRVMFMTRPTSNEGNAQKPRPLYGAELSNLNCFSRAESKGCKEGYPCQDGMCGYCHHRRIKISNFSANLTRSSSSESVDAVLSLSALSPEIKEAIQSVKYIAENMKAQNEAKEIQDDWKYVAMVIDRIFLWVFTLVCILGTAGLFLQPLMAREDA
Assay: Inhibitory concentration required for in vitro binding affinity to Nicotinic acetylcholine receptor alpha3-beta2 expressed on cell line Sf 9 by using [3H]MCC
Set-up: species or system Rattus norvegicus
Conditions: not given

SMILES | IC50
Cc1cc(/C=C2\CN3CCC2C3)on1 (stereo not drawn) | 15 nM

Organism: Rattus norvegicus
Assay: The compound was tested for inducing [3H]dopamine release from striatal slices at 10 uM nicotine
Assay type: functional
Conditions: not given

SMILES | Activity
Cc1cc(/C=C2/CN3CCC2C3)on1 (stereo not drawn) | 46%
Cc1cc(/C=C2\CN3CCC2CC3)on1 | 68%
Cc1cc([C@@H]2CCCN2C)on1 [ABT-418] | 66%
CN1CCC[C@H]1c1cccnc1 [NICOTINE] | 180%

Organism: Xenopus sp.
Assay: Compound was tested for inducing stimulation of current response in Xenopus oocytes (alpha3-beta2) at 30 uM
Assay type: functional, frog
Conditions: not given

SMILES | Response
Cc1cc(/C=C2/CN3CCC2C3)on1 (stereo not drawn) | 38%
Cc1cc(/C=C2\CN3CCC2C3)on1 (stereo not drawn) | 51%
Cc1cc(/C=C2\CN3CCC2CC3)on1 | 135%
Cc1cc([C@@H]2CCCN2C)on1 [ABT-418] | 40%
CN1CCC[C@H]1c1cccnc1 [NICOTINE] | 100%

System: Rattus norvegicus
Assay: The compound was tested in vivo against effective nicotinic agonistic activity in rat
Assay type: functional
Conditions: not given

SMILES | Activity
Cc1cc(/C=C2\CN3CCC2CC3)on1 | 60%
CN1CCC[C@H]1c1cccnc1 [NICOTINE] | 96%

Target: Muscarinic acetylcholine receptor
Assay: Inhibitory concentration required for in vitro binding affinity to cholinergic central muscarinic receptor on rat brain cortex by using [3H]OXO-M
Conditions: not given

SMILES | IC50
Cc1cc(C=C2CN3CCCC2C3)on1 (stereo not drawn) | 1700 nM
Cc1cc(/C=C2/CN3CCC2C3)on1 (stereo not drawn) | 2800 nM
Cc1cc(/C=C2\CN3CCC2C3)on1 (stereo not drawn) | 1200 nM
Cc1cc(/C=C2/CN3CCC2CC3)on1 | 1500 nM
Cc1cc(/C=C2\CN3CCC2CC3)on1 | 1000 nM
Cc1cc(/C=C2\CN3CCCC2C3)on1 (stereo not drawn) | 950 nM

Organism: Rattus norvegicus
Assay: Compound was tested for inducing [3H]-dopamine release from striatal slices at 10 uM nicotine
Assay type: functional
Conditions: not given

SMILES | Activity
Cc1cc(/C=C2\CN3CCC2C3)on1 (stereo not drawn) | 80%

System: Rattus norvegicus
Assay: The compound was tested in vivo against effective nicotinic agonistic activity in rat when administered s.c.
Assay type: functional
Conditions: sc

SMILES | ED50
Cc1cc(/C=C2\CN3CCC2CC3)on1 | 0.1 mg/kg
CN1CCC[C@H]1c1cccnc1 [NICOTINE] | 0.04 mg/kg

System: Mus musculus
Assay: Compound was tested in vivo for exploratory locomotor activity in mice after peroral administration
Assay type: functional
Conditions: po

SMILES | ED50
Cc1cc(/C=C2\CN3CCC2C3)on1 (stereo not drawn) | 2 mg/kg
Cc1cc(/C=C2\CN3CCC2CC3)on1 | 2.4 mg/kg
Cc1cc([C@@H]2CCCN2C)on1 [ABT-418] | 72 mg/kg
CN1CCC[C@H]1c1cccnc1 [NICOTINE] | > 9 mg/kg

System: Rattus norvegicus
Assay: Compound was tested in vivo against effective nicotinic agonistic activity in rat
Assay type: functional
Conditions: not given

SMILES | Activity
Cc1cc(/C=C2/CN3CCC2C3)on1 (stereo not drawn) | 62%
Cc1cc(/C=C2\CN3CCC2C3)on1 (stereo not drawn) | 63%
Cc1cc([C@@H]2CCCN2C)on1 [ABT-418] | 72%

Target: Neuronal acetylcholine receptor
Assay: Inhibitory concentration required for in vitro binding affinity to cholinergic central Nicotinic acetylcholine receptor on rat brain cortex by using [3H]MCC
Conditions: not given

SMILES | IC50
Cc1cc(C=C2CN3CCCC2C3)on1 (stereo not drawn) | 85 nM
Cc1cc(/C=C2/CN3CCC2C3)on1 (stereo not drawn) | 26 nM
Cc1cc(/C=C2\CN3CCC2C3)on1 (stereo not drawn) | 23 nM
Cc1cc(/C=C2\CN3CCC2CC3)on1 | 3.4 nM
Cc1cc(/C=C2\CN3CCCC2C3)on1 (stereo not drawn) | 170 nM

System: not listed separately
Assay: Inhibitory concentration required for in vitro binding affinity to Nicotinic acetylcholine receptor alpha4-beta2 expressed on cell line sf 21 by using [3H]MCC
Conditions: not given

SMILES | IC50
Cc1cc(/C=C2/CN3CCC2CC3)on1 | 288 nM

Target: T1, Neuronal acetylcholine receptor; alpha3/beta2
Assay: Inhibitory concentration required for in vitro binding affinity to Nicotinic acetylcholine receptor alpha3-beta2 expressed on cell line sf 9 by using [3H]-MCC
Set-up: species or system Rattus norvegicus
Conditions: not given

SMILES | IC50
Cc1cc(C=C2CN3CCCC2C3)on1 (stereo not drawn) | 117 nM
Cc1cc(/C=C2/CN3CCC2C3)on1 (stereo not drawn) | 14 nM
Cc1cc(/C=C2/CN3CCC2CC3)on1 | 854 nM
Cc1cc(/C=C2\CN3CCC2CC3)on1 | 1.9 nM
Cc1cc(/C=C2\CN3CCCC2C3)on1 (stereo not drawn) | 217 nM
Cc1cc([C@@H]2CCCN2C)on1 [ABT-418] | 62 nM

System: not listed separately
Assay: Inhibitory concentration required for in vitro binding affinity to Nicotinic acetylcholine receptor alpha4-beta2 expressed on cell line Sf 21 by using [3H]MCC
Conditions: not given

SMILES | IC50
Cc1cc(/C=C2\CN3CCC2C3)on1 (stereo not drawn) | 11 nM

Organism: Rattus norvegicus
Assay: The compound was tested for inducing [3H]dopamine release from striatal slices at 1 uM nicotine
Assay type: functional
Conditions: not given

SMILES | Activity
Cc1cc(/C=C2/CN3CCC2C3)on1 (stereo not drawn) | 17%
Cc1cc(/C=C2\CN3CCC2CC3)on1 | 51%
Cc1cc([C@@H]2CCCN2C)on1 [ABT-418] | 5%
CN1CCC[C@H]1c1cccnc1 [NICOTINE] | 100%
